The text below walks through data of patent publication EP3219306B1, “COMPOSITION COMPRISING CITICOLINE AND HOMOTAURINE FOR PREVENTING AND TREATING NEUODEGENERATIVE DISEASES AND COGNITIVE DISORDERS” (NEURAXPHARM ITALY S.P.A., priority 2016, dated 2017).

The nature of data set [1]: Randomized double-blind, placebo-controlled trial in subjects with medium to moderate Alzheimer's disease. The format is in vivo, human. As to conditions: 50, 100, 150 mg homotaurine in combination with 500, 750 and 1000 mg sodium citicoline. The method, then:
Studies to evaluate the pharmacokinetic-pharmacodynamic effect of compositions for use of the invention have provided positive indications about the activity. In particular, in a randomized double-blind, placebo-controlled trial in which 58 subjects with from medium to moderate Alzheimer's disease were administered 50, 100, 150 mg of homotaurine in combination with 500, 750 and 1000 mg of sodium citicoline.

For data set [2] the following is noted: 50 mg per day, individuals with an average decline of cognitive functions; cited from earlier work.
For data set [3], the system named is human retina pigment epithelium (ARPE-19). Briefly: MTT assay, cell viability of retina cells against cytotoxicity induced by glucose oxidase (GOX). The format is cell-based. Particulars: cytotoxicity induced by GOX 50 mU/ml; 1 µM; n = 5. The method, then:
(§1) The MTT assay was used to measure the viability of both neuronal and retina cells. The cells were prepared in a 96-well plate in DMEM-F12 with 7% FBS. After cultured in DMEM-F12 without serum for 12 h, Ab25-35 ([…]) or glucose oxidase (GOX) alone or in combination with homotaurine (Hom), citicoline (CITC) or Hom + CITC were added to the medium. Twenty-four hours later, the cells were incubated with […] MTT (Roche, 0.5 mg/ml) at 37 °C for 4 hours, then the crystals were dissolved in […] DMSO. Absorbance at 570 nm was measured with a spectrophotometer (TECAN Infinite M200, Switzerland).
In general terms: Formazan colour is commonly taken as a measure of viable cells.

The subject of data set [4] is retinal cells. Particulars: for cytotoxicity (cell death) on the cell cultures: 1, 10, 100 µM for 24 h; for toxicity to retinal cells (MTT): 1, 10 or 100 µM. The method, then: as §1
Data set [5] has as its target Aβ40 (Homo sapiens, UniProt P05067). As to conditions: 8-week treatment, 30 or 100 mg/kg/day; cited from earlier work.
Data set [6] concerns the target Aβ42 (Homo sapiens, UniProt P05067). As to conditions: 8-week treatment, 30 or 100 mg/kg/day; cited from earlier work.
Data set [7] can be described thus: Bioavailability of [methyl-14C]-labelled citicoline by oral and venous route, radioactivity in plasma. The format is in vivo, experimental animal models. From the text: In experimental animal models, the applicant compared the bioavailability by oral and venous route of citicoline, labeling it with a radioactive label -[methyl-14C].
Data set [8] can be described thus: Water solubility. In kind it is physicochemical.

Entries after “also recorded” stand apart in the source; their conditions may differ.

Aβ42, sequence (P05067 672-713 limits assumed, species assumed): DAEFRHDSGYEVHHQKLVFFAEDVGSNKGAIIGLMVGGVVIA
Aβ40, sequence (P05067 672-711 limits assumed, species assumed): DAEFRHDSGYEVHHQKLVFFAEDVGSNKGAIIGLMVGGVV

As to `C[N+](C)(C)CCOP(=O)([O-])OP(=O)([O-])OC[C@H]1O[C@@H](n2ccc(N)nc2=O)[C@H](O)[C@@H]1O.[Na+]` [sodium citicoline], the “crossing of the blood-brain barrier” value in data set [1] is on record as “crossed the blood-brain barrier”.

Turning to `NCCCS(=O)(=O)O` [homotaurine, 3-amino-1-propanesulfonic acid], in data set [2], the “effect on atrophy of the hippocampus” value is given as “positive effect” and the “effect on episodic memory loss” value is “positive effect”. Besides, in data set [3], the “cell viability (MTT)” value was “able to improve the cell viability”. In addition, in data set [4], the “cytotoxicity (cell death) on the cell cultures” value is listed as “None of the concentrations induced cell death; also recorded: substantial absence of cytotoxicity” and the “toxicity to retinal cells (MTT)” value was “no evidence of selective toxicity”. The “plasma level of Aβ40” value in data set [5] is listed as “able to reduce”. Besides, the “crossing of the blood-brain barrier” value in data set [1] is “crossed the blood-brain barrier”. The “plasma level of Aβ42” value in data set [6] is reported as “able to reduce”.

For the molecule `C[N+](C)(C)CCOP(=O)(O)OP(=O)([O-])OC[C@H]1O[C@@H](n2ccc(N)nc2=O)[C@H](O)[C@@H]1O` [citicoline, 2-[{[5-(4-amino-2-oxopyrimidin-1-yl)-3,4-dihydroxyoxolan-2-yl]methoxy-hydroxyphosphoryl}oxy-hydroxyphosphoryl]oxyethyl-thrimethylazanium], in data set [4], the “cytotoxicity (cell death) on the cell cultures” value is given as “None of the concentrations induced cell death; also recorded: substantial absence of cytotoxicity” and the “toxicity to retinal cells (MTT)” value is “no evidence of selective toxicity”. The bioavailability result in data set [7] (oral administration) is on record as “greater than 90%”. Moreover, the “equivalence of the two alternative administration routes (percentage of radioactivity in plasma over time)” value in data set [7] (oral vs venous route, [methyl-14C] label) is given as “about 90%”. Besides, in data set [8], the water solubility result is given as “high”.
